Measurements as given in patent US5939578A, “Vasomolol: an ultra short-acting and vasodilatory vanilloid type β - adrenoceptor antagonist” (Lin; Tong-Ho, priority 1996, dated 1999).

What was measured:
[1] = system: β-adrenergic receptor; assay: β-blockade and duration of action: inhibition of (-)isoproterenol-induced tachycardia during and after infusion; assay type: in vivo, pentobarbital-anesthetized rats
Experimental: Vasomolol (100 μg/kg/min) was infused consecutively into a femoral vein in pentobarbital-anesthetized rats. Each perfusion was maintained for 60 min. Before and during the infusion of vasomolol and esmolol, at 10-min intervals, bolus i.v. injections of (-) isoproterenol (0.5. μg/kg) were administered to assess the level of β-blockade. (-) lsoproterenol injections were also continued for 60 min. after termination of the highest dose of vasomolol and esmolol to assess the duration of β-blockade reported in J. Pharm. Exp. Ther. 237, 912, 1986 (by Quon, C. Y. et al.). The percentage of inhibition of the (-)isoproterenol-induced tachycardia parameter of β-blockade--was calculated during and after infusions of vasomolol.
isoproterenol (0.5 μg/kg)
vasomolol (0.5, 1.0, 3.0 mg/kg)

[2] = molecular target: T1, β1-adrenoceptor (right atrium) (Cavia porcellus, UniProt H0W3H1); assay: β-adrenoceptor antagonism in isolated spontaneously-beating right atria (isoproterenol chronotropic response); set-up: species or system guinea-pig
T1 construct: Spontaneously-beating right atria were removed from the hearts and mounted in a 10 ml organ bath; from tissue; host or cells: isolated guinea-pig (Hartley) right and left atria
Experimental: Guinea-pigs (Hartley) of either sex weighing between 350 and 500 g were sacrificed by a blow on the head. Their hearts and trachea were quickly excised and excess tissue was removed. […] The atrial strip was prestretched to a baseline tension of 0.2 g. […] The atria were then allowed a 30-60 min washout period to estabilize, after which time various concentrations of the test compound were incubated with the atrium 30 min before the cumulative concentrations of the (-) isoproterenol ([…]) was added. All responses to (-) isoproterenol were calculated as a percentage of the maximum control response to (-) isoproterenol.
(§1) The pA2 values and slope values were calculated from individual Schild plots by regression analysis. The β1 /β2 -selectivity ratio was obtained from the antilogarithm of the difference between the mean pA2 values obtained from right atrium and trachea.
Mean cumulative concentration-response curves are shown for the positive chronotropic responses to (-) isoproterenol in spontaneously-beating guinea-pig right atria, positive inotropic responses to (-) isoproterenol in electrically driven guinea-pig left atria, and relaxant effects to (-) isoproterenol in guinea-pig spontaneous tone tracheal strips in the absence (.smallcircle.) or presence of 0.01 (.circle-solid.), 0.1, 1 (.tangle-soliddn.) or 10 (.diamond.) μM of vasomolol.

[3] = system: β1/β2-adrenoceptors; assay: β1/β2-selectivity from mean pA2 values of right atria and trachea; set-up: species or system guinea-pig
Experimental: as §1, with “The β1 /β2 -selectivity ratio was obtained from the antilogarithm of the difference between the mean pA2 values obtained from the right atria and trachea as described in J. Pharm. […] The pA2” for “The pA2”

[4] = molecular target: T2, β-adrenoceptor, ventricular membranes (Sus scrofa, UniProt Q28998); assay: Competition for [3H]-DHA binding to ventricular membranes; set-up: species or system pig
T2 construct: tissue local slaughterhouse; host or cells: pig heart ventricular membranes
Experimental: Pig's heart were obtained from a local slaughterhouse immediately after the animals had been killed and transported to our laboratory in ice-cold buffer (250 mM sucrose/50 mM Tris [hydroxymethyl] aminomethane HCl/1 mM magnesium chloride, pH 7.4). Various heart tissues were removed and prepared as detailed as described in Cardiovasc. […] In the test for receptor binding, the ventricles were placed in ice-cold buffer and all subsequent procedures were carried out at 4° C. The tissue was homogenised in 20 volumes of TE buffer (10 mmole.litre^-1 Tris-HCl, 1 mmole.litre^-1 EDTA, 0.1 mmole.litre^-1 ascorbic acid, pH 7.4) with three 12-s pulses using a Polytron homogenizer (Kinematica, Model PT 3000, Switzerland). The homogenate was filtered with pressure through muslin and the filtrate centrifuged for 10 min at 1000 g to remove connective tissue, unbroken cells and cell debris.
This membrane preparation has been described in Biochem. Biophys. Acta. […] The binding assay of [^3 H]-DHA was carried out as described in Biochem. Biophys. Res. Commun. […] [^3 ]-DHA and ventricular membranes (200-300 μg) were incubated for 60 min at 25° C. with and without the addition of 1 μM alprenolol, in 75 mM Tris-HCI buffer comprising MgCl2 25 mM, to make a final volume of 250 μl. In competitive binding experiments, the competing agent was added directly to the incubation mixture. The incubation was terminated by addition of 1 ml of ice-cold assay buffer followed by immediate filtration through Whatman GF/C glass fiber filters supported on a 12-port filter manifold (Millipore). The filters were immediately washed three times with 5 ml of ice-cold assay buffer and dried in an oven at 60° C. for 2 hr prior to adding 5 ml of Triton-toluene based scintillation fluid.
In each experiment, non-specifically bound [^3 H]-DHA was determined by incubating membrane protein and [^3 H]-DHA with 1 μM alprenolol. Specific binding was thus obtained by deducing this value from the total binding of [^3 H]-DHA for each sample.
All incubations were performed as described in the method section. Data shown are the means of three independent duplicate determinations.

[5] = system: isolated rat thoracic aorta; assay: Inhibition of phenylephrine and high K+ induced contractions of isolated rat aorta (vasodilatation effect)
Experimental: Male rats weighing 200-250 g were sacrificed by a blow on the head and the thoracic aorta was removed and cleaned of all loosely adhering tissue. The thoracic aorta was cut from an area close to the aortic arch, immediately placed in a physiological solution, and trimmed to 2-4 mm in length as described in Gen. Pharmacol. 24, 1425, 1993 (by inventor group) The rings were then mounted with a tension of 1.0 g between parallel hooks in a 10 ml organ bath containing a physiological solution(mM):NaCl 112; KCl5.0; NaHCO3 25; KH2 PO4 1.0; CaCl2 1.25; MgSO4 1.2; and glucose 11.5]. The bath was maintained at 37° C. and aerated with a mixture of 95% O2 and 5% CO2. The tension of the aortic rings were recorded isometrically by means of a force displacement transducer (UGO, Model 7004, Italy) connected to an amplifier (COULBOURN, Model S72-25, U.S.A.). Before the start of the experiments, all preparations were allowed to equilibrate for 1.0 hr in the physiologic solution.
Effects of vasomolol on (A) phenylephrine(10^-5 M) and (B) high K^+ (75 mM) induced contraction in rat thoracic aorta.

T1 sequence (H0W3H1 1-470): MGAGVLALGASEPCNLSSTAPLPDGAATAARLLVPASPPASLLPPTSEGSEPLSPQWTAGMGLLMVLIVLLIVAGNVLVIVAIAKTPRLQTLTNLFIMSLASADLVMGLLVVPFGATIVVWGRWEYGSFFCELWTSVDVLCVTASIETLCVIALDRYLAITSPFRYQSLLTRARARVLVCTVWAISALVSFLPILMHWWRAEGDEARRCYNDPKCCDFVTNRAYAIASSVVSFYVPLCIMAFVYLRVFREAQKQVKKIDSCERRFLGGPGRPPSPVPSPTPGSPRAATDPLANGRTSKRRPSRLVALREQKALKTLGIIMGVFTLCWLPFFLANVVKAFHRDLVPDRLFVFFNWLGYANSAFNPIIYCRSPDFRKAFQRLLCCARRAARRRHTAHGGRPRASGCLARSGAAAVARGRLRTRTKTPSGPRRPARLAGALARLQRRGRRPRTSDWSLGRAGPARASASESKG
T2 sequence (Q28998 whole entry): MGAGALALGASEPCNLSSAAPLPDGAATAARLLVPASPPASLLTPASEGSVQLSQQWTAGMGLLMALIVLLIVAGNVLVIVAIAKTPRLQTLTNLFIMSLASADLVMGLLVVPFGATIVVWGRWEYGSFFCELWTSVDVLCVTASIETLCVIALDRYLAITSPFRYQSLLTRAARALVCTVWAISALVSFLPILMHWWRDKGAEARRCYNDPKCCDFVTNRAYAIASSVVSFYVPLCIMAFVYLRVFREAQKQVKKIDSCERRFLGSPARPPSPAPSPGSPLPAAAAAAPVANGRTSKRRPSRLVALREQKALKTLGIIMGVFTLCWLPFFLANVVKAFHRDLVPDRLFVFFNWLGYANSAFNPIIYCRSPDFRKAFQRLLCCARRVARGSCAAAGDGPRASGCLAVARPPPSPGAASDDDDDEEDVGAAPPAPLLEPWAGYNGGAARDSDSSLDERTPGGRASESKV

SMILES: CCOC(=O)c1ccc(OCC(O)CNC(C)(C)C)c(OC)c1 (centres unmarked) [Vasomolol]
- onset of β-blockade to steady-state level ([1]; after initiating each infusion rate, isoproterenol 0.5 μg/kg): ≤ 10 min
- time required for 50% recovery ([1]; after termination of infusion, mean±S.E.M.): 9.5 ± 1.0 min
- disappearance of β-blockade after termination of infusion ([1]; in words): disappeared rapidly after the termination of infusion
- antagonism of isoproterenol-induced positive chronotropic actions ([2]; 5×10^-8 -10^-6 M, right atrial strips): caused a dose-dependent parallel shift to the right of the isoproterenol concentration-response curves
- pA2 value, β1, right atrium ([2]; mean ± SEM, six to eight experiments, 30 min): 7.41 ± 0.05
- Schild slope, right atrium ([2]; regression of Schild plot): 0.90 ± 0.04
- β1/β2 selectivity in words [3]: selective for β1-adrenoceptors
- β1/β2-selectivity ratio ([3]; antilogarithm of difference between mean pA2 of right atrium and trachea): 39.8
- potency on right atria versus trachea ([3]; from mean pA2 values): 39.8 times
- order of potency inhibiting [3H]-DHA binding ([4]; in words): (-) propranolol>>vasomolol=esmolol
- IC50 ([4]; mean±S.E.M.): 4.7 ± 1.5 µM
- inhibition of high K+ induced contraction ([5]; K+ 75 mM, vasomolol printed 10^6 -10^5 M): significantly inhibited
- relaxation sensitivity, high K+ versus phenylephrine ([5]; in words): more sensitive in high K^+ than in phenylephrine-contracted aorta preparations
- inhibition of phenylephrine-induced contraction ([5]; phenylephrine printed 10^5 M, vasomolol printed 10^6 -10^5 M): significantly inhibited
